From patent publication US11535598B2, “Histone deacetylases (HDACs) inhibitors” (ANNJI PHARMACEUTICAL CO., LTD., priority 2017, dated 2022)
Like-named read-outs stand apart in the source and are kept apart here.

Legend:
HL60 = experiment: Cell proliferation assay MTT, HL60; conditions: read-out: Cytotoxicity IC50 Leukemia HL60, 72 hr treated
U87MG [1] = experiment: Cell proliferation assay MTT, U87MG; conditions: read-out: Cytotoxicity IC50 Glioblastoma U87MG, 72 hr treated
Human HDAC6 = Human HDAC6 (Homo sapiens (Human), UniProt Q9UBN7); experiment: HDAC enzymatic assay, HDAC6; type: biochemical; conditions: 10-dose IC50 mode with a 3-fold serial dilution; read-out: HDAC subtypes IC50 HDAC6
Sequence of Human HDAC6 (Q9UBN7 whole entry): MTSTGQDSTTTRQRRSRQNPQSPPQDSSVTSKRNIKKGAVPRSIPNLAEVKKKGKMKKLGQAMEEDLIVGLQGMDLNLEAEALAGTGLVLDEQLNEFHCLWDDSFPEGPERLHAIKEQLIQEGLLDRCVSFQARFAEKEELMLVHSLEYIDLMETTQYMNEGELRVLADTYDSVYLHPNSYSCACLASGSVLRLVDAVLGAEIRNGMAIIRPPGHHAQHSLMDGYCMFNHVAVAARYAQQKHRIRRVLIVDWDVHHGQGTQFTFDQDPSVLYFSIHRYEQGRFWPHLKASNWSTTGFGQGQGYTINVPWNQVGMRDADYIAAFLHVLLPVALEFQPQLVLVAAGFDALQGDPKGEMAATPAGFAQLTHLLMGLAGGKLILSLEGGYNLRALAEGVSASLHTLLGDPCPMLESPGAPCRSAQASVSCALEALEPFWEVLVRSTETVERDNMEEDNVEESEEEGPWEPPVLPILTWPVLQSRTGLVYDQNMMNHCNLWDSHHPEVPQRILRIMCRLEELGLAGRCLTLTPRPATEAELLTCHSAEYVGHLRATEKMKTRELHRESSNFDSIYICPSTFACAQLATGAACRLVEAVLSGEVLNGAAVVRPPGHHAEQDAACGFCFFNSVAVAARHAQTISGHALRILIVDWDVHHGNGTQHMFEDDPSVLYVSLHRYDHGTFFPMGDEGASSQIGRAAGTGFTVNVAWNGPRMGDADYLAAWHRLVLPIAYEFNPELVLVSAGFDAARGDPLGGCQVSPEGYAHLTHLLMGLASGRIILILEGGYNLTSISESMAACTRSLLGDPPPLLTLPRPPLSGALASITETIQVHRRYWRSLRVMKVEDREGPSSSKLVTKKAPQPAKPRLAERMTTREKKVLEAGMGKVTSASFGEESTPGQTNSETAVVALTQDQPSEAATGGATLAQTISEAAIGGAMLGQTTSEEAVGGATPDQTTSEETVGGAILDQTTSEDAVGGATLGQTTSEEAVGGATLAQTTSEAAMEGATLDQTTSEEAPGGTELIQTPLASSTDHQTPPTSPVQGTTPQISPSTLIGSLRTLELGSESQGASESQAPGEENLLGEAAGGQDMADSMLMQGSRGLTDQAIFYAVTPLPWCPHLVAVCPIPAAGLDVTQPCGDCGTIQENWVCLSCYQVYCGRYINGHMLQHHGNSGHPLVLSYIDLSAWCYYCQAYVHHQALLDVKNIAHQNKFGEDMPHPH
Procedure: (§1) The IC50 values for aforementioned compounds against HDACs were determined. HDAC 1 to 11 can be assayed by using acetylated AMC-labeled peptide substrate.
(§2) Human HDAC1 GenBank Accession No. NM_004964): Full length with C-terminal GST tag, MW=79.9 kDa, Human HDAC2 (GenBank Accession No. Q92769): Full length with C-terminal His tag, MW=60 kDa. Human HDAC3/NcoR2 (GenBank Accession No. […] for HDAC3, GenBank Accession No. NM_006312 for NcoR2): Complex of human HDAC3, full length with C-terminal His tag, MW=49.7 kDa, and human NCOR2, N-terminal GST tag, MW=39 kDa. Human HDAC6 (GenBank Accession No. BC069243): Full length with N-terminal GST tag, MW=159 kDa. Human HDAC8 (GenBank Accession No. NM018486): Full length, MW=42 kDa, expressed in an E. coli expression system.
(§3) Human HDAC1, Human HDAC2, Human HDAC3/NcoR2, Human HDAC6, Human HDAC10, and Human HDAC11 were all expressed by baculovirus expression system in Sf9 cells.
(§4) 50 μM HDAC substrate. 1% DMSO final. Incubation for 2 hours at 30° C.

in vitro [2] = conditions: human
A549 [3] = experiment: Cell proliferation assay MTT, A549; conditions: read-out: Cytotoxicity IC50 Lung A549, 72 hr treated
LNCap [4] = experiment: Cell proliferation assay MTT, LNCaP; conditions: read-out: Cytotoxicity IC50 Prostate LNCap, 72 hr treated
in vitro [5] = conditions: monkey
Human HDAC1 = Human HDAC1 (Homo sapiens (Human), UniProt Q13547); experiment: HDAC enzymatic assay, HDAC1; type: biochemical; conditions: 10-dose IC50 mode with a 3-fold serial dilution; read-out: HDAC subtypes IC50 HDAC1
Sequence of Human HDAC1 (Q13547 whole entry): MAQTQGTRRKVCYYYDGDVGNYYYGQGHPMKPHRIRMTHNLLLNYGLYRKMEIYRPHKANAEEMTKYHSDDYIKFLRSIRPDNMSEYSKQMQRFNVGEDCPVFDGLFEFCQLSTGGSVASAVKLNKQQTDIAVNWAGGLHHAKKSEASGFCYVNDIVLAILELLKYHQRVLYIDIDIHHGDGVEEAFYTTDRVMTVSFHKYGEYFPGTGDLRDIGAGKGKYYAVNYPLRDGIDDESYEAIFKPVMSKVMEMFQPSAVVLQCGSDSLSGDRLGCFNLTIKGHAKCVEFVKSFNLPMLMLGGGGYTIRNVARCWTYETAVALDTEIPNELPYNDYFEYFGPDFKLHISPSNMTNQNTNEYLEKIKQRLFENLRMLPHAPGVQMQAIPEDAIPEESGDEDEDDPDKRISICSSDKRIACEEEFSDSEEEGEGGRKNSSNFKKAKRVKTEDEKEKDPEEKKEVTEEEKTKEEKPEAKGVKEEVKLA
Procedure: as §1, §2, §3, §4

MOLM13 = experiment: Cell proliferation assay MTT, MOLM13
HepG2 [6] = experiment: Cell proliferation assay MTT, HepG2; conditions: read-out: Cytotoxicity IC50 Liver HepG2, 72 hr treated
PANC1 [7] = experiment: Cell proliferation assay MTT, PANC1; conditions: read-out: Cytotoxicity IC50 Pancreas PANC1, 72 hr treated
Human HDAC8 = Human HDAC8 (Homo sapiens (Human), UniProt Q9BY41); experiment: HDAC enzymatic assay, HDAC8; type: biochemical; conditions: 10-dose IC50 mode with a 3-fold serial dilution; read-out: HDAC subtypes IC50 HDAC8
Sequence of Human HDAC8 (Q9BY41 whole entry): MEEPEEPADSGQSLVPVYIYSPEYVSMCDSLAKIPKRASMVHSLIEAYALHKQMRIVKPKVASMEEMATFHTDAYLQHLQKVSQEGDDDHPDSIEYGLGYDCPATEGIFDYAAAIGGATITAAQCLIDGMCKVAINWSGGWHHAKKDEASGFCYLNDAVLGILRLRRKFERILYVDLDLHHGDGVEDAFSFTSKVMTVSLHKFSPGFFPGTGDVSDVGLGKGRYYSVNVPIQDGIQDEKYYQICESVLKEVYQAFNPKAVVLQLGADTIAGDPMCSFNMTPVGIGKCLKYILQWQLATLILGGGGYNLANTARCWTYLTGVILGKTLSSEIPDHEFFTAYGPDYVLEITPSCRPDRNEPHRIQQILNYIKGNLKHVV
Procedure: as §1, §2, §4

MV4-11 = experiment: Cell proliferation assay MTT, MV4-11
Human HDAC11 = Human HDAC11 (Homo sapiens (Human), UniProt Q96DB2); experiment: HDAC enzymatic assay, HDAC11; type: biochemical; conditions: 10-dose IC50 mode with a 3-fold serial dilution; read-out: HDAC subtypes IC50 HDAC11
Sequence of Human HDAC11 (Q96DB2 whole entry): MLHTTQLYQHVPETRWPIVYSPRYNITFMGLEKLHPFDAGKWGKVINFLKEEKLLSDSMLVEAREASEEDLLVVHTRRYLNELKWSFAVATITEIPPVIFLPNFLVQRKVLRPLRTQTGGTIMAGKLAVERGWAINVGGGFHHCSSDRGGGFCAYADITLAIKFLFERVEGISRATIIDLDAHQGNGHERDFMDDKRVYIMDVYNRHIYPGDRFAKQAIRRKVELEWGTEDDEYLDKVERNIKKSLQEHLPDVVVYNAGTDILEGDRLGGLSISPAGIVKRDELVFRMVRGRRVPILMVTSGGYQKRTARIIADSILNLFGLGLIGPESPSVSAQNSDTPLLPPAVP
Procedure: as §1, §2, §3, §4

U87MG [8] = conditions: human, 72 h
LNCap [9] = conditions: human, 72 h
A549 [10] = conditions: human, 72 h
HepG2 [11] = conditions: human, 72 h
PANC1 [12] = conditions: human, 72 h
Vero = experiment: Cell proliferation assay MTT, Vero normal cells; conditions: read-out: Cytotoxicity IC50 Monkey normal Vero, 72 hr treated
[13] = read-out: Cytotoxicity IC50 Leukemia MOLM13, MTT assay, 72 hr treated
[14] = read-out: Cytotoxicity IC50 Leukemia MV4-11, MTT assay, 72 hr treated
[15] = human, MOLM13 leukemia cells, 72 h
[16] = human, MV4-11 leukemia cells, 72 h

SMILES	IC50 (Human HDAC6) [nM]	IC50 (Human HDAC1) [µM]	IC50 (Human HDAC8) [nM]	IC50 at 72 h (in vitro [2]) [µM]	IC50 (Human HDAC11) [µM]	IC50 at 72 h (in vitro [5]) [µM]	IC50 (U87MG [8]) [µM]	IC50 (LNCap [9]) [µM]	IC50 (A549 [10]) [µM]	IC50 (HepG2 [11]) [µM]	IC50 (PANC1 [12]) [µM]	IC50 (HL60) [nM]	IC50 (U87MG [1]) [µM]	IC50 at 72 h (in vitro [2]; FHs173We normal cells) [µM]	IC50 (A549 [3]) [µM]	IC50 (LNCap [4]) [µM]	IC50 at 72 h (in vitro [5]; Vero normal cells) [µM]	IC50 (MOLM13; [13]) [nM]	IC50 (MOLM13; [15]) [nM]	IC50 (MV4-11; [16]) [nM]	also measured
N#Cc1ccc2c(=O)n(CCc3ccccc3)c(=O)n(Cc3ccc(C(=O)NO)cc3)c2c1 [Compound 3, 4-((7-cyano-2,4-dioxo-3-phenethyl-3,4-dihydroquinazolin-1(2H)-yl)methyl)-N-hydroxybenzamide]	13500	12	1300	–	–	–	–	–	–	–	–	> 10000	> 10	> 200	> 10	> 10	> 10	> 10000	–	–	IC50 (HepG2 [6]): > 10 µM; IC50 (PANC1 [7]): > 10 µM; IC50 (MV4-11; [14]): > 10000 nM
O=C(NO)c1ccc(Cn2c(=O)n(CCc3ccccc3)c(=O)c3ccc(O)cc32)cc1 [Compound 4, N-hydroxy-4-((7-hydroxy-2,4-dioxo-3-phenethyl-3,4-dihydroquinazolin-1(2H)-yl)methyl)benzamide]	28	8.28	2750	147.1 ± 0.51	5.5	156.4 ± 0.42	4.28 ± 0.67	2.97 ± 0.22	8.04 ± 0.28	6.12 ± 0.33	6.54 ± 0.11	670 ± 90	–	–	–	–	–	–	810 ± 90	750 ± 110	–
O=C(NO)c1ccc(Cn2c(=O)n(CCc3ccccc3)c(=O)c3ccccc32)cc1 [Compound 5, 4-((2,4-dioxo-3-phenethyl-3,4-dihydroquinazolin-1(2H)-yl)methyl)-N-hydroxybenzamide]	4	11.2	376	–	13.9	–	–	–	–	–	–	250 ± 30	1.56 ± 0.14	83.21 ± 0.62	3.75 ± 0.39	0.44 ± 0.07	91.38 ± 0.47	160 ± 30	–	–	IC50 (HepG2 [6]): 1.93 ± 0.25 µM; IC50 (PANC1 [7]): 4.15 ± 0.27 µM; IC50 (MV4-11; [14]): 170 ± 50 nM
O=C(NO)c1ccc(Cn2c(=O)n(CCc3ccccc3)c(=O)c3ccc(Cl)cc32)cc1 [Compound 8, 4-((7-chloro-2,4-dioxo-3-phenethyl-3,4-dihydroquinazolin-1(2H)-yl)methyl)-N-hydroxybenzamide]	21	9.54	1640	75.79 ± 0.12	–	85.74 ± 0.17	2.1 ± 0.06	1.07 ± 0.14	2.28 ± 0.27	2.74 ± 0.29	3.52 ± 0.09	440 ± 40	–	–	–	–	–	–	480 ± 80	370 ± 20	–
O=C(NO)c1ccc(Cn2c(=O)n(CCc3ccccc3)c(=O)c3cc(Cl)ccc32)cc1 [Compound 9, 4-((6-chloro-2,4-dioxo-3-phenethyl-3,4-dihydroquinazolin-1(2H)-yl)methyl)-N-hydroxybenzamide]	35	18.9	–	–	–	–	–	–	–	–	–	2710 ± 50	2.26 ± 0.13	70.34 ± 0.12	2.45 ± 0.51	1.01 ± 0.11	77.51 ± 0.14	2820 ± 70	–	–	IC50 (HepG2 [6]): 2.03 ± 0.47 µM; IC50 (PANC1 [7]): 4.05 ± 0.12 µM; IC50 (MV4-11; [14]): 2780 ± 30 nM
O=C(NO)c1ccc(Cn2c(=O)n(CCc3ccccc3)c(=O)c3ccc(C(F)(F)F)cc32)cc1 [Compound 13, 4-((2,4-dioxo-3-phenethyl-7-(trifluoromethyl)-3,4-dihydroquinazolin-1(2H)-yl)methyl)-N-hydroxybenzamide]	635	8.02	1440	–	7.39	–	–	–	–	–	–	870 ± 120	5.87 ± 0.14	131.7 ± 0.25	7.22 ± 0.29	5.92 ± 0.21	146.2 ± 0.41	920 ± 70	–	–	IC50 (HepG2 [6]): 5.48 ± 0.27 µM; IC50 (PANC1 [7]): 8.29 ± 0.43 µM; IC50 (MV4-11; [14]): 830 ± 110 nM
COc1ccccc1CCn1c(=O)c2ccccc2n(Cc2ccc(C(=O)NO)cc2)c1=O [Compound 15, N-hydroxy-4-((3-(2-methoxyphenethyl)-2,4-dioxo-3,4-dihydroquinazolin-1(2H)-yl)methyl)benzamide]	11	–	525	–	34.4	–	–	–	–	–	–	1220 ± 80	7.08 ± 0.8	55.44 ± 0.09	5.69 ± 0.21	5.71 ± 0.32	96.92 ± 0.11	1470 ± 70	–	–	IC50 (HepG2 [6]): 7.11 ± 0.28 µM; IC50 (PANC1 [7]): > 10 µM; IC50 (MV4-11; [14]): 1650 ± 30 nM
O=C(CCCCCCC(=O)Nc1ccccc1)NO [SAHA, reference compound]	–	–	–	–	–	–	–	–	–	–	–	1850 ± 80	–	–	–	–	–	–	–	–	IC50 (Vero): 26.6 µM

More lines, main results first:

IC50 (Human HDAC6) [nM]	IC50 (Human HDAC1) [µM]	IC50 (Human HDAC8) [nM]	IC50 at 72 h (in vitro [2]) [µM]	IC50 (Human HDAC11) [µM]	IC50 at 72 h (in vitro [5]) [µM]	IC50 (U87MG [8]) [µM]	IC50 (LNCap [9]) [µM]	IC50 (A549 [10]) [µM]	IC50 (HepG2 [11]) [µM]	IC50 (PANC1 [12]) [µM]	SMILES	IC50 (HL60) [nM]	IC50 (U87MG [1]) [µM]	IC50 at 72 h (in vitro [2]; FHs173We normal cells) [µM]	IC50 (A549 [3]) [µM]	IC50 (LNCap [4]) [µM]	IC50 at 72 h (in vitro [5]; Vero normal cells) [µM]	IC50 (MOLM13; [13]) [nM]	IC50 (MOLM13; [15]) [nM]	IC50 (MV4-11; [16]) [nM]	also measured
23	10.8	1050	83.81 ± 0.19	14.7	116 ± 0.23	6.31 ± 0.63	4.25 ± 0.21	6.35 ± 0.11	6.82 ± 0.12	> 10	O=C(NO)c1ccc(Cn2c(=O)n(CCc3ccc(F)cc3)c(=O)c3ccccc32)cc1 [Compound 14, 4-((3-(4-fluorophenethyl)-2,4-dioxo-3,4-dihydroquinazolin-1(2H)-yl)methyl)-N-hydroxybenzamide]	1370 ± 70	–	–	–	–	–	–	1620 ± 90	1770 ± 50	–
57	13.4	1160	100.5 ± 0.37	16.7	123.2 ± 0.33	6.13 ± 0.78	5.74 ± 0.51	8.96 ± 0.17	6.64 ± 0.92	8.47 ± 0.04	O=C(NO)c1ccc(Cn2c(=O)n(CCc3ccccc3)c(=O)c3cc(F)ccc32)cc1 [Compound 17, 4-((6-fluoro-2,4-dioxo-3-phenethyl-3,4-dihydroquinazolin-1(2H)-yl)methyl)-N-hydroxybenzamide]	2370 ± 110	–	–	–	–	–	–	356000 ± 90	3130 ± 90	–
170	10.9	2520	135.1 ± 0.39	52.1	127.4 ± 0.28	5.68 ± 0.19	5.38 ± 0.41	7.44 ± 0.12	6.82 ± 0.44	8.73 ± 0.71	Cc1ccc2c(=O)n(CCc3ccccc3)c(=O)n(Cc3ccc(C(=O)NO)cc3)c2c1 [Compound 22, N-hydroxy-4-((7-methyl-2,4-dioxo-3-phenethyl-3,4-dihydroquinazolin-1(2H)-yl)methyl)benzamide]	1460 ± 80	–	–	–	–	–	–	1770 ± 50	1640 ± 70	–
–	–	–	92.11 ± 0.69	–	95.27 ± 0.58	4.12 ± 0.06	4.05 ± 0.07	4.21 ± 0.03	4.24 ± 0.03	5.12 ± 0.11	N#Cc1ccc2c(=O)n(CCc3ccccc3)c(=O)n(Cc3ccc(CC(=O)NO)cc3)c2c1 [Compound 23, 2-(4-((7-cyano-2,4-dioxo-3-phenethyl-3,4-dihydroquinazolin-1(2H)-yl)methyl)phenyl)-N-hydroxyacetamide]	1250 ± 80	–	–	–	–	–	–	2320 ± 70	1190 ± 70	–
10	13.2	428	84.34 ± 0.73	10.7	93.26 ± 0.25	3.77 ± 0.25	0.96 ± 0.02	4.58 ± 0.21	4.03 ± 0.11	5.03 ± 0.19	O=C(NO)c1ccc(Cn2c(=O)n(CCc3cccc(F)c3)c(=O)c3ccccc32)cc1 [Compound 26, 4-((3-(3-fluorophenethyl)-2,4-dioxo-3,4-dihydroquinazolin-1(2H)-yl)methyl)-N-hydroxybenzamide]	3120 ± 80	–	–	–	–	–	–	4010 ± 60	3710 ± 110	–
